Tests used:
Rattus norvegicus = experiment: Antiinflammatory activity in rat assessed as inhibition of calcium ionophore A23187-induced CysLT production in bronchoalveolar lavage fluid at 3 mg/kg, po administered 16 hrs prior to A23187 challenge; assay type: functional, Lung; design: scale not given: the % may be the effect or the level left
[1] = molecular target: T1, Arachidonate 5-lipoxygenase-activating protein (Homo sapiens, UniProt P20292); experiment: Inhibition of FLAP in human peripheral leukocytes assessed as inhibition of calcium ionophore A23187-induced LTB4 production after 5 mins by ELISA in absence of human serum albumin; assay type: cell-based
T1 sequence (P20292 whole entry): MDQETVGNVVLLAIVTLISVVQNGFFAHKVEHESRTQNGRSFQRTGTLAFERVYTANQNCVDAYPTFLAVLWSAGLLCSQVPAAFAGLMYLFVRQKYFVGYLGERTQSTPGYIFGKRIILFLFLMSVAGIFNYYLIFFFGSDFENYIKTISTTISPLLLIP

[2] = molecular target: T1, Arachidonate 5-lipoxygenase-activating protein; experiment: Inhibition of FLAP in human peripheral leukocytes assessed as inhibition of calcium ionophore A23187-induced LTB4 production after 10 mins by ELISA; assay type: cell-based
Cytochrome P450 3A4 = Cytochrome P450 3A4 (Homo sapiens, UniProt P08684); experiment: Inhibition of human CYP3A4; assay type: ADME
[3] = molecular target: Prostaglandin G/H synthase 1 (Homo sapiens, UniProt P23219); experiment: Inhibition of COX1-mediated TXB2 production in human whole blood after 30 mins by competitive enzyme immunoassay
[4] = molecular target: T1, Arachidonate 5-lipoxygenase-activating protein; experiment: Inhibition of FLAP in human peripheral leukocytes assessed as inhibition of calcium ionophore A23187-induced LTB4 production after 10 mins by ELISA in presence of 0.5% human serum albumin; assay type: cell-based
[5] = molecular target: T2, Prostaglandin G/H synthase 2 (Homo sapiens, UniProt P35354); experiment: Inhibition of COX2-mediated PGE2 production in human whole blood assay
T2 sequence (P35354 whole entry): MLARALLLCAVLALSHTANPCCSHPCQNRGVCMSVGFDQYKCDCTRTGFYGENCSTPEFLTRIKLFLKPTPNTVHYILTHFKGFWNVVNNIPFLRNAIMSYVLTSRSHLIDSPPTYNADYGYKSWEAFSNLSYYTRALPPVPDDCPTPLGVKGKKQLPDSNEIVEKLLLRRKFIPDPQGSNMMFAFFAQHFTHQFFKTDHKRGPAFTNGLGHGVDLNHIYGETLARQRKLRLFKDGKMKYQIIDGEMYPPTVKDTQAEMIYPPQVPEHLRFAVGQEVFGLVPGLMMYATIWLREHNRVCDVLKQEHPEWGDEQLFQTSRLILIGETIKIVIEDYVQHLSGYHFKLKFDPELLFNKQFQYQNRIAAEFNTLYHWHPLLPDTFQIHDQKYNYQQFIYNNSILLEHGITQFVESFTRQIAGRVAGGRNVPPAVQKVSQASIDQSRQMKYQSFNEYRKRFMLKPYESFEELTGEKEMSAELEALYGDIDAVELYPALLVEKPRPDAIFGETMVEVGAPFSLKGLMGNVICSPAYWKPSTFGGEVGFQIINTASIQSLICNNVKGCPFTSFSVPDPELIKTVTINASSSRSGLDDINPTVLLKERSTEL

[6] = molecular target: T1, Arachidonate 5-lipoxygenase-activating protein; experiment: Inhibition of FLAP in human peripheral leukocytes assessed as inhibition of calcium ionophore A23187-induced LTB4 production after 3 hr by ELISA in presence of 0.5% human serum albumin; assay type: cell-based
Cytochrome P450 2D6 = Cytochrome P450 2D6 (Homo sapiens, UniProt P10635); experiment: Inhibition of human CYP2D6; assay type: ADME
[7] = molecular target: T3, Polyunsaturated fatty acid 5-lipoxygenase (Homo sapiens, UniProt P09917); experiment: Inhibition of 5-lipoxygenase
T3 sequence (P09917 whole entry): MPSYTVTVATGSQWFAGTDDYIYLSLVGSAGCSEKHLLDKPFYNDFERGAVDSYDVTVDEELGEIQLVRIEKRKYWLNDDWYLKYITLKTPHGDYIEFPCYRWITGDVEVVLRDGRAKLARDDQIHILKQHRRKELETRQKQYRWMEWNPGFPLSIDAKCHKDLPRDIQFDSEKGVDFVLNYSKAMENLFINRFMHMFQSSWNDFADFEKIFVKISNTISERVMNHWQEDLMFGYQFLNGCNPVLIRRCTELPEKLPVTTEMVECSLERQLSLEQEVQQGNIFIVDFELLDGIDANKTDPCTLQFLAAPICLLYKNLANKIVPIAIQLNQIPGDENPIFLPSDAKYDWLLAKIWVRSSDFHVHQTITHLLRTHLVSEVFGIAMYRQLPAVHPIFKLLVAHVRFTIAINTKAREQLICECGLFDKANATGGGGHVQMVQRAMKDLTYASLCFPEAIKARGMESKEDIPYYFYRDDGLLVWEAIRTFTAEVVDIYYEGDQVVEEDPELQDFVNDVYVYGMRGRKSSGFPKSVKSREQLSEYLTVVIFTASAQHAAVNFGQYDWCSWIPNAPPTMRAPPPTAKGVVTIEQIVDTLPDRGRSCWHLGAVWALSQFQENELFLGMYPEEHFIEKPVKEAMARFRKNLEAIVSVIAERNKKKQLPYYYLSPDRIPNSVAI

[8] = Half life in Beagle dog at 2 mg/kg, iv; assay type: ADME, organism-based, Canis lupus familiaris; design: dose 2 mg/kg, route intravenous; settings: in vivo

Chain of Cytochrome P450 3A4 (P08684 whole entry): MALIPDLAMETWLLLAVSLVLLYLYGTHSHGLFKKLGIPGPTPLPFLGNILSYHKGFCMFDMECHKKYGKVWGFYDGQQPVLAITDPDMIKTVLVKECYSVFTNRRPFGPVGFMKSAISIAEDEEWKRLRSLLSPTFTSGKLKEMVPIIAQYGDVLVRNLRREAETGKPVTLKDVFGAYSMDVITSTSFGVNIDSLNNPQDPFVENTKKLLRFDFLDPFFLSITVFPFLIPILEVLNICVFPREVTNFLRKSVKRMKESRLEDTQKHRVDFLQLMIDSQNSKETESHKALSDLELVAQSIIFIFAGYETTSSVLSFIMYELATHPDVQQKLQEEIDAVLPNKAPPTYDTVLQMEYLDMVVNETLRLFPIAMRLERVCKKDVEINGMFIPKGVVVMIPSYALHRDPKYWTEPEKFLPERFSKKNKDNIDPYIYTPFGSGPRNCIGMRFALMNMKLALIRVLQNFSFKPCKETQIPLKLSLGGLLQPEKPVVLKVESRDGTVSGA
Chain of Cytochrome P450 2D6 (P10635 whole entry): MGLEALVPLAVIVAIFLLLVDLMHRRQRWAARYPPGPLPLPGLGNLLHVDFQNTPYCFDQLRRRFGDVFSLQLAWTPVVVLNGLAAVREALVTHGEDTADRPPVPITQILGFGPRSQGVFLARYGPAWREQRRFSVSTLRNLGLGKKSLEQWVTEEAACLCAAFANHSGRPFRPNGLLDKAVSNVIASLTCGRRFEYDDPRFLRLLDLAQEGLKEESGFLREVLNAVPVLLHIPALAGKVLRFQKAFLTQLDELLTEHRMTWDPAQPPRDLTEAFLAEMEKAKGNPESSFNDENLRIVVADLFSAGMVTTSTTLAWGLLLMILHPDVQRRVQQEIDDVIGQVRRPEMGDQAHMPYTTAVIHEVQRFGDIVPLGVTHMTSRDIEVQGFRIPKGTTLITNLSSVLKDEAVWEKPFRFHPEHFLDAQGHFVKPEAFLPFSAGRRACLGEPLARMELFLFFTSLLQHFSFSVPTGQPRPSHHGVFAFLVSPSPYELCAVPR
Chain of Prostaglandin G/H synthase 1 (P23219 whole entry): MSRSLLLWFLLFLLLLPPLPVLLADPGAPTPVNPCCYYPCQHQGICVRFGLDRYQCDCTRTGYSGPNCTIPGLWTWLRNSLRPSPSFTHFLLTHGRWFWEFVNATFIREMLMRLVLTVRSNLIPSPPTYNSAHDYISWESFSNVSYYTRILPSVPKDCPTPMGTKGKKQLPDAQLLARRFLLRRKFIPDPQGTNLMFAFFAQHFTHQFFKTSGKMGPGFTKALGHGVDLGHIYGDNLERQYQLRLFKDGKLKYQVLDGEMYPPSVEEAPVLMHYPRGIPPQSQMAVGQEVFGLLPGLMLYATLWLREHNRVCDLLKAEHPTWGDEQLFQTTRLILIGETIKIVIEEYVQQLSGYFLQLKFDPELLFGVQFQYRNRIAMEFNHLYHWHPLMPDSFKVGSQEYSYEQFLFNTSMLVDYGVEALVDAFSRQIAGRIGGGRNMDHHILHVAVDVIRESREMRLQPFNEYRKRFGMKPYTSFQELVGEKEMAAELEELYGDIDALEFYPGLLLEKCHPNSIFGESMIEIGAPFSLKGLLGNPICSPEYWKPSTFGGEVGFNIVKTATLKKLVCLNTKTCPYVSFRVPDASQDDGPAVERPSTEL

IC50 [1]: 1 nM
IC50 [2]: 0.7 nM
IC50 (Cytochrome P450 3A4): > 50000 nM
IC50 [3]: 58000 nM
IC50 [4]: 26 nM
IC50 [5]: > 100000 nM
IC50 [6]: 4 nM
IC50 (Cytochrome P450 2D6): > 40000 nM
IC50 [7]: 20000 nM
half-life [8]: 13 h
Compound: CCOc1ccc(-c2ccc(Cn3c(CC(C)(C)C(=O)O)c(SC(C)(C)C)c4cc(OCc5ccc(C)cn5)ccc43)cc2)cn1 [FIBOFLAPON]
Activity (Rattus norvegicus): 41%
